Key:
Acetylcholinesterase = Acetylcholinesterase (Homo sapiens, UniProt P22303); assay: Inhibition of AChE
Histamine H3 receptor = Histamine H3 receptor (Homo sapiens, UniProt Q9Y5N1); assay: Inhibition of histamine H3 receptor
Sequence of Histamine H3 receptor (Q9Y5N1 whole entry): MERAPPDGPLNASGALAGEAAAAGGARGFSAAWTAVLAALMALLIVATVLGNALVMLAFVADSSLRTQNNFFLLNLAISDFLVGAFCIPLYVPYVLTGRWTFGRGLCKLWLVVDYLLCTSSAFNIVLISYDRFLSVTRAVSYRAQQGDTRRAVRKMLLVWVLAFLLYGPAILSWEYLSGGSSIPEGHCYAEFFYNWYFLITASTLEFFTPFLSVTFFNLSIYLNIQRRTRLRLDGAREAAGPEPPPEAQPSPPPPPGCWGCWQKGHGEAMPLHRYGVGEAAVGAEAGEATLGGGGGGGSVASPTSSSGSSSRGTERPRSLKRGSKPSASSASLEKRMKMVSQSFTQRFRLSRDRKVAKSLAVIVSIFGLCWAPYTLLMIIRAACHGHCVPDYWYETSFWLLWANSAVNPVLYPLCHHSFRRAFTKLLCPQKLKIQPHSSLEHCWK

Sequence of Acetylcholinesterase (P22303 whole entry): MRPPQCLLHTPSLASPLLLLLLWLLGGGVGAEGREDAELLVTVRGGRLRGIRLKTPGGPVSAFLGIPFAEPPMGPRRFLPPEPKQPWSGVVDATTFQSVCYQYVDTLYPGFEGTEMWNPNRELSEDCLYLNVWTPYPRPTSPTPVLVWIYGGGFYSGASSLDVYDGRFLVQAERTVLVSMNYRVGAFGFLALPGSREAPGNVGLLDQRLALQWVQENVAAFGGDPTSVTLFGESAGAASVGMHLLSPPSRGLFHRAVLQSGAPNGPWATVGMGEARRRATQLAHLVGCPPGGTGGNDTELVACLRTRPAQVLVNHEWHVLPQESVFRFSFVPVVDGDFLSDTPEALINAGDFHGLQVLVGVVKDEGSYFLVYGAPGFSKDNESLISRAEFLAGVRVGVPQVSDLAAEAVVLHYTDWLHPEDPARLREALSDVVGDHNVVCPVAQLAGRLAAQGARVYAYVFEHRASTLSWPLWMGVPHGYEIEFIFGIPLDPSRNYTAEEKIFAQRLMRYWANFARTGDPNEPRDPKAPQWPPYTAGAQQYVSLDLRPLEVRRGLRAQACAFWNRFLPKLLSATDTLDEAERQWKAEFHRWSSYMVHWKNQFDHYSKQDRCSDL

SMILES | IC50 (Acetylcholinesterase) [µM] | IC50 (Histamine H3 receptor) [µM]
OC1CCN(Cc2ccc(OCCCN3CCCCC3)cc2)CC1 | 2.3 | 0.00072
OCCC1CCN(Cc2ccc(OCCCN3CCCCC3)cc2)CC1 | 0.35 | 0.00098
OCC1CCN(Cc2ccc(OCCCN3CCCCC3)cc2)CC1 | 1.1 | 0.0013
C[N+](C)(C)CCCCCCCCCC[N+](C)(C)C [DECAMETHONIUM] | 5.9 | 0.82
COc1cc2c(cc1OC)C(=O)C(CC1CCN(Cc3ccccc3)CC1)C2 (stereo not given) [DONEPEZIL] |  | 0.35
c1cc(OCCCN2CCCCC2)ccc1CN1CCCCC1 [JNJ-5207852] | 3.2 | 

— ChEMBL document CHEMBL1143968, “Lead identification of acetylcholinesterase inhibitors-histamine H3 receptor antagonists from molecular modeling” (Bioorg Med Chem, 2008)
